# Data: US20060257843A1 (priority 2002, published 2006)
# Values joined by “and” are separate entries in the source; they are usually repeats but may differ in a detail not shown here. Identical values can stand only once. “Also recorded” adds a separate entry of the source. Bridge positions count the residues as written; N and C are the ends. Square brackets hold non-standard residues; d marks the D form. Peptide text beside a SMILES is read from it. Hyp = O=C(O)[C@@H]1C[C@@H](O)CN1
# What was measured:
# [1] = tested on: primary cultures of cortex; type: cell-based, rat
# [2] = tested on: primary cultures of cortex; type: cell-based, rat; remark: listed apart in the source
# [3] = tested on: cardiac myocytes; type: cell-based, rat
# [4] = tested on: primary cultures of cortical neurons; type: cell-based, rat
# [5] = tested on: cardiac ventricular myocytes; type: cell-based, rat
# [6] = tested on: isolated rabbit hearts
# [7] = tested on: ventricular myocytes, cortex and trachea; type: cell-based, rat
# [8] = tested on: primary cultures of cortex; type: cell-based, rat; remark: listed apart in the source
# [9] = tested on: anesthetized rat; conditions: in vivo, iv
# [10] = tested on: primary cultures of cortex
# [11] = tested on: primary cultures of ventricular myocytes
# [12] = target: Shaker H4 potassium channel (Drosophila melanogaster, UniProt P08510); conditions: cited from earlier work
# Shaker H4 potassium channel, sequence (P08510 whole entry): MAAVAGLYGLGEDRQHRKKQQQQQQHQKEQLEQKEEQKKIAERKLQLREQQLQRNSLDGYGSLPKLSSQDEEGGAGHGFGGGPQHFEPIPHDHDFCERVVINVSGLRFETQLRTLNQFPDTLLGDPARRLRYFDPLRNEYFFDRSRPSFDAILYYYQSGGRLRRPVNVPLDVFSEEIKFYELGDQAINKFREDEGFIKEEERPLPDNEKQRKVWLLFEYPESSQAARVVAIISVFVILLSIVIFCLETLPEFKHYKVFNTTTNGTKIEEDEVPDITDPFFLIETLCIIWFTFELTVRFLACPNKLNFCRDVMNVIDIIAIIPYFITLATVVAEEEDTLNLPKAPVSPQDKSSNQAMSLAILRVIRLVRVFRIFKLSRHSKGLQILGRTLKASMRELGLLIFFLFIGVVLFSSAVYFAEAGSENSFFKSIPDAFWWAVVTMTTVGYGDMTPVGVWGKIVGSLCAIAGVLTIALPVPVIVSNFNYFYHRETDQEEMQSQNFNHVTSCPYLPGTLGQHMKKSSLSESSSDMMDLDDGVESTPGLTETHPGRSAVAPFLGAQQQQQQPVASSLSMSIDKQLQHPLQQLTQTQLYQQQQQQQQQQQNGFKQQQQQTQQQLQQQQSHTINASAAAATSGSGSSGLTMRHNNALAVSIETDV
# [13] = tested on: cortical cells
# [14] = tested on: primary cortical cultures
# [15] = tested on: New Zealand White rabbits; conditions: rabbit, in vivo
# [16] = tested on: canine model of AMI; conditions: dog, in vivo
# [17] = target: T1, Kv1.1 (Homo sapiens, UniProt Q09470); conditions: cited from earlier work
# T1 construct: host or cells: oocytes
# T1 sequence (Q09470 whole entry): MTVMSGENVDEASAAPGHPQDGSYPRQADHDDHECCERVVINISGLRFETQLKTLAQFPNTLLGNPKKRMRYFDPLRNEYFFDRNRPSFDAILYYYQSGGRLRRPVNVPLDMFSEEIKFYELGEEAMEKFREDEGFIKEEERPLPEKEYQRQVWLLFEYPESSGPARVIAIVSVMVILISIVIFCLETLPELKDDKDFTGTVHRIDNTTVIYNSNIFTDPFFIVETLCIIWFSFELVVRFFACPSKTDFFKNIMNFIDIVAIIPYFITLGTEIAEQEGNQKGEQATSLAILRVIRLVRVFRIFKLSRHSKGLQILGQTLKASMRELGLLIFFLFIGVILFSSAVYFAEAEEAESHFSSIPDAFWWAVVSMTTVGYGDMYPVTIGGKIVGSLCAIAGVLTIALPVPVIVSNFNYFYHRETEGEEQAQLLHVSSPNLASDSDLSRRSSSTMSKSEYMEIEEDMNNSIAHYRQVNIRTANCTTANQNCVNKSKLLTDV
# [18] = target: Kv1.4 (Homo sapiens, UniProt P22459); conditions: cited from earlier work
# Kv1.4, sequence (P22459 whole entry): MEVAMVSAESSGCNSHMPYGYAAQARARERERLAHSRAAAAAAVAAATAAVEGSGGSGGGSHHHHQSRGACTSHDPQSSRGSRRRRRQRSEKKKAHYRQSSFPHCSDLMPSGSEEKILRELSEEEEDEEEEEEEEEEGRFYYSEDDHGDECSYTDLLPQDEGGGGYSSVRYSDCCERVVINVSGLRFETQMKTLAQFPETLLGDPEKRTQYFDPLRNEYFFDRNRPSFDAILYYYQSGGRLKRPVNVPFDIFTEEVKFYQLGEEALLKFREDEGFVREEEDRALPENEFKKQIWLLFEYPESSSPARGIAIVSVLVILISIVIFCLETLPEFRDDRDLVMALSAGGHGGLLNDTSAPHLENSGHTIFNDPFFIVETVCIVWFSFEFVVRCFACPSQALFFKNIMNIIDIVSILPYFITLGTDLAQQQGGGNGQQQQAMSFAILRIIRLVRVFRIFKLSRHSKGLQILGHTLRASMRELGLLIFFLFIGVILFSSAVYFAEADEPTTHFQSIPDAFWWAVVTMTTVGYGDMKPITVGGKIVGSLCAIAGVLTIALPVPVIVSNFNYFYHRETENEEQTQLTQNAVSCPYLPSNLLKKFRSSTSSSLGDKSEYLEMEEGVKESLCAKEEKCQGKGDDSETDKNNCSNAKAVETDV
# [19] = target: T2, Kv1.3 (Homo sapiens, UniProt P22001); conditions: cited from earlier work
# T2 construct: host or cells: oocytes
# T2 sequence (P22001 whole entry): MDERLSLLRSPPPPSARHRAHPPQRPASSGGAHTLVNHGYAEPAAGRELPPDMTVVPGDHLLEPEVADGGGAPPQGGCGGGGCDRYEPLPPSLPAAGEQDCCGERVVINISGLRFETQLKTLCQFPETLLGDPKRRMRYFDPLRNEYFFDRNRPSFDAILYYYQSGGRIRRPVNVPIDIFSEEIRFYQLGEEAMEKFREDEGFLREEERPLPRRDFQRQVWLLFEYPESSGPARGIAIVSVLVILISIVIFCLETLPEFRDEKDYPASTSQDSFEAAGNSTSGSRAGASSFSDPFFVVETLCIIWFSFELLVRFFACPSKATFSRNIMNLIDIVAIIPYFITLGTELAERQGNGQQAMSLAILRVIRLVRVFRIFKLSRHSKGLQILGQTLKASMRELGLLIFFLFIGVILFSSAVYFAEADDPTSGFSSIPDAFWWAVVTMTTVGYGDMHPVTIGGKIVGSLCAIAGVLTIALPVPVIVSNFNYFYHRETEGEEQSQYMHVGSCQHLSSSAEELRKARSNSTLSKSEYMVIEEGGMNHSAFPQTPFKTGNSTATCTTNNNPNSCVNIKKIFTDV
# [20] = target: F425G Shaker mutation (Drosophila melanogaster, UniProt P08510, F425G); conditions: cited from earlier work
# F425G Shaker mutation, sequence (P08510 whole entry F425G): as the sequence (P08510 whole entry) above, with F425G counted along it
structure (smiles),measurement,setting,value
"CC[C@H](C)[C@@H]1NC(=O)[C@H](CCCNC(=N)N)NC(=O)[C@@H](N)CSSC[C@@H]2NC(=O)[C@@H]3CSSC[C@@H](C(=O)N[C@H](C(=O)O)C(C)C)NC(=O)[C@H](CCCCN)NC(=O)[C@H](CC(N)=O)NC(=O)[C@H](Cc4ccccc4)NC(=O)[C@H](CCCNC(=N)N)NC(=O)[C@H](CC(N)=O)NC(=O)[C@H](CSSC[C@H](NC(=O)[C@H](CCCCN)NC(=O)[C@H](CCC(N)=O)NC(=O)[C@H](CC(N)=O)NC(=O)[C@@H]4C[C@@H](O)CN4C1=O)C(=O)N[C@@H](Cc1ccccc1)C(=O)N[C@@H](CCC(N)=O)C(=O)N[C@@H](Cc1c[nH]cn1)C(=O)N[C@@H](CC(C)C)C(=O)N[C@@H](CC(=O)O)C(=O)N[C@@H](CC(=O)O)C(=O)N3)NC(=O)[C@H](CCCCN)NC(=O)[C@H](CCCNC(=N)N)NC(=O)[C@H](CO)NC2=O [κ-PVIIA, Cys-Xaa1-Ile-Xaa2-Asn-Gln-Xaa3-Cys-Xaa4-Gln-Xaa5-Leu-Asp-Asp-Cys-Cys-Ser-Xaa1-Xaa3-Cys-Asn-Xaa1-Xaa4-Asn-Xaa3-Cys-Val] (H-CRI[Hyp]NQKCFQHLDDCCSRKCNRFNKCV-OH; disulfide 1-16, 8-20, 15-26)",intracellular K+ concentration (PBFI fluorescence),[1],reduction
same,current corrected for cell capacitance,[2],2.4±0.7 pA/pf
same,current evoked by κ-PVIIA,[2],26.2±6.2 pA
same,reversal of κ-PVIIA-induced inward current,[2],~−20 mV
same,sensitivity of evoked currents to KATP antagonists,[2],sensitive
same,current corrected for cell capacitance,[3],4.6±0.4 pA/pf
same,current evoked by κ-PVIIA,[3],87.7±5.9 pA
same,experimentally determined Ek (reversal potential of evoked current),[3],−23 mV
same,reversal of κ-PVIIA-induced inward current,[3],~−20 mV
same,sensitivity of evoked currents to KATP antagonists,[3],sensitive
same,change in intracellular calcium (Fluo-3 fluorescence),[4],−2.15±0.95% and −8.8±3.9%
same,protection against hypoxia-induced depolarization,[5],prevented any hypoxia-induced changes in membrane potential; also recorded: protective effect
same,"protective effect against hypoxia induced depolarization (initial screen, Example 10)",[5],strong protective effect
same,effect on infarct size,[6],reduced the infarct size; also recorded: no effect
same,protection against hypoxia-induced changes in intracellular calcium,[7],able to provide protection against hypoxia
same,initial glutamate-induced depolarization,[8],prevents the initial glutamate-induced depolarization
same,effect on blood pressure,[9],no effect
same,effect on heart rate,[9],no effect
same,EC50,[10],0.0008 pM
same,EC50,[11],0.0009 pM
same,block of the Drosophila H4 shaker K+ channel,[12],block
same,degree of glutamate-induced excitotoxicity (delayed cellular death),[13],effectively reduces the degree of glutamate-induced excitotoxicity in a dose-dependant manner
same,protection against delayed cytotoxic effects of glutamate,[13],very effective protection
same,protease activity (cytotoxicity),[14],no detectable protease activity
same,hemodynamic effect,[15],without any hemodynamic effect
same,lowest effective dose,[15],0.01 mg/kg
same,"infarct size as % of risk zone, protection",[15]; iv,equally as protective
same,drop in blood pressure normally seen upon reperfusion,[16],prevented the drop in blood pressure
same,lowest effective dose,[16],0.1 mg/kg
same,effect on infarct size,[16]; iv,No significant effect
same,reduction of infarct size,[16]; iv,approximately 60%
same,activity on Kv1.1,[17],no effects; also recorded: no detectable activity
same,activity on Kv1.4,[18],no detectable activity
same,effects on Kv1.3,[19],no effects
same,effect of F425G Shaker mutation on κ-PVIIA sensitivity,[20],abolishes
